The structures appear in SMILES notation. Active and inactive are the calls of the source. No cut-off for these calls is given here.

Here are results for one molecule from ChEMBL document CHEMBL5380833 (J Med Chem, 2023).

The target in series [1] is T1, Protein cereblon/Tyrosine-protein kinase ITK/TSK (Homo sapiens, UniProt Q08881+Q96SW2). The experiment in a line: PROTAC activity at CRBN/ITK in human Jurkat cells assessed as maximum degradation at 0.01 to 10 uM by Western blot analysis relative to control. The series is classed as cell-based. To be noted: dose 0.01-10 µM. For orientation: Immunoblotting shows a protein as a band on a membrane.

Series [2] deals with T1, Protein cereblon/Tyrosine-protein kinase ITK/TSK. The experiment in a line: PROTAC activity at CRBN/ITK in human Jurkat cells assessed as residual activity at 10 uM incubated for 16 hrs relative to control. The format is cell-based.
Series [3] has the same target. The experiment in a line: PROTAC activity at CRBN/ITK in Jurkat cells assessed as induction of ITK degradation at 100 nM pretreated with GNE-9822 for 1 hr followed by compound addition and measured after 2 hrs by Western blot analysis. The series is classed as cell-based.
For series [4] the target is unchanged. The experiment in a line: PROTAC activity at CRBN/ITK in human Jurkat cells assessed as induction of ITK degradation at 100 nM measured after 2 hrs by Western blot analysis. The series is classed as cell-based.
Series [5] concerns the target T2, Tyrosine-protein kinase ZAP-70 (Homo sapiens) (UniProt P43403).
T2 sequence (whole entry): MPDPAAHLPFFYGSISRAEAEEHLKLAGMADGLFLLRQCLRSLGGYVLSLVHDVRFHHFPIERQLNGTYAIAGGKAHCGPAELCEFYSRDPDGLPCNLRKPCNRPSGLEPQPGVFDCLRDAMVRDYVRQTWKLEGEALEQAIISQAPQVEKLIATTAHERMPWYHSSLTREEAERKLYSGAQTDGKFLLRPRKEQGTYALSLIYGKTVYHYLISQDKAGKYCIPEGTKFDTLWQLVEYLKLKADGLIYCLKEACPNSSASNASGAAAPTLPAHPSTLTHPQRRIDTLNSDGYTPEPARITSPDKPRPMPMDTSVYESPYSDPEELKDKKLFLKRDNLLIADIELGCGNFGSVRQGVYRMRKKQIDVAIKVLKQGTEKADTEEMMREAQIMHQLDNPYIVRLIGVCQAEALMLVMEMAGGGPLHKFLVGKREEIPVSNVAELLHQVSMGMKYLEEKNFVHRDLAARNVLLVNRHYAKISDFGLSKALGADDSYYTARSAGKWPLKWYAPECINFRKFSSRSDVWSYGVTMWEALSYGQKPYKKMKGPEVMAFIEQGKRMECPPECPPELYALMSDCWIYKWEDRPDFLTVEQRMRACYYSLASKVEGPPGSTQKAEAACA
The experiment in a line: Induction of degradation of ZAP-70 in human Jurkat cells at 0.01 to 10 uM by immunoblotting analysis. The format is cell-based. To be noted: dose 0.01-10 µM.

The target in series [6] is Tyrosine-protein kinase Lck (Homo sapiens) (UniProt P06239). The experiment in a line: Induction of degradation of LCK in human Jurkat cells at 0.01 to 10 uM by immunoblotting analysis. The format is cell-based. To be noted: dose 0.01-10 µM.
Series [7] deals with T3, Tyrosine-protein kinase TXK (Homo sapiens) (UniProt P42681).
T3 sequence (whole entry): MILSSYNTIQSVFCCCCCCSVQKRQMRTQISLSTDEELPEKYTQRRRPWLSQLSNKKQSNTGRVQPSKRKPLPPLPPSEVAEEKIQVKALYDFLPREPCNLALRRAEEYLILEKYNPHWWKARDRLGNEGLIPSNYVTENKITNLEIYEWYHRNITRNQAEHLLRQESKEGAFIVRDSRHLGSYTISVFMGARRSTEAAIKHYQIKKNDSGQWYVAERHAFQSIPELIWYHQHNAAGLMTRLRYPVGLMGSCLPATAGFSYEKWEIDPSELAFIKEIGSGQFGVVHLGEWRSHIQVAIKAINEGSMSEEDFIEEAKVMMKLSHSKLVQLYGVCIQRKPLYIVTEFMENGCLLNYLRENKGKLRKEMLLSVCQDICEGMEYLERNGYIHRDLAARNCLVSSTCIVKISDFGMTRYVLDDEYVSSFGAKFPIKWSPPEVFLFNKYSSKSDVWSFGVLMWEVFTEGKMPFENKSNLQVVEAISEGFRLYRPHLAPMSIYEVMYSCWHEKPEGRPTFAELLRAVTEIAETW
The experiment in a line: Induction of degradation of RLK in human Jurkat cells at 0.01 to 10 uM by immunoblotting analysis. The series is classed as cell-based. To be noted: dose 0.01-10 µM.

Series [8] is described as follows: AUC (0 to t) in Balb/c mouse at 5 mg/kg, iv measured upto 24 hrs by LC-MS/MS analysis. The format is ADME, organism-based. Also noted: dose 5 mg/kg, time < 24 hrs, route iv. To be noted: in vivo.
Series [9] can be described thus: AUC (0 to infinity) in Balb/c mouse at 5 mg/kg, iv measured upto 24 hrs by LC-MS/MS analysis. The format is ADME, organism-based. Also noted: time < 24 hrs, dose 5 mg/kg, route iv. To be noted: in vivo.
Series [10] is described as follows: Clearance in Balb/c mouse at 10 mg/kg, ip measured upto 24 hrs by LC-MS/MS analysis. The series is classed as ADME, organism-based. To be noted: in vivo.
Series [11] in a line: Cmax in Balb/c mouse at 10 mg/kg, ip measured upto 24 hrs by LC-MS/MS analysis. The series is classed as ADME, organism-based. Also noted: dose 10 mg/kg, time < 24 hrs, route ip. To be noted: in vivo.
The target of series [12] is Tyrosine-protein kinase Tec (Homo sapiens) (UniProt P42680). The experiment in a line: Induction of degradation of TEC in human Jurkat cells at 0.01 to 10 uM by immunoblotting analysis. To be noted: dose 0.01-10 µM.
Chain of Tyrosine-protein kinase Tec (Homo sapiens) (P42680 whole entry, looked up): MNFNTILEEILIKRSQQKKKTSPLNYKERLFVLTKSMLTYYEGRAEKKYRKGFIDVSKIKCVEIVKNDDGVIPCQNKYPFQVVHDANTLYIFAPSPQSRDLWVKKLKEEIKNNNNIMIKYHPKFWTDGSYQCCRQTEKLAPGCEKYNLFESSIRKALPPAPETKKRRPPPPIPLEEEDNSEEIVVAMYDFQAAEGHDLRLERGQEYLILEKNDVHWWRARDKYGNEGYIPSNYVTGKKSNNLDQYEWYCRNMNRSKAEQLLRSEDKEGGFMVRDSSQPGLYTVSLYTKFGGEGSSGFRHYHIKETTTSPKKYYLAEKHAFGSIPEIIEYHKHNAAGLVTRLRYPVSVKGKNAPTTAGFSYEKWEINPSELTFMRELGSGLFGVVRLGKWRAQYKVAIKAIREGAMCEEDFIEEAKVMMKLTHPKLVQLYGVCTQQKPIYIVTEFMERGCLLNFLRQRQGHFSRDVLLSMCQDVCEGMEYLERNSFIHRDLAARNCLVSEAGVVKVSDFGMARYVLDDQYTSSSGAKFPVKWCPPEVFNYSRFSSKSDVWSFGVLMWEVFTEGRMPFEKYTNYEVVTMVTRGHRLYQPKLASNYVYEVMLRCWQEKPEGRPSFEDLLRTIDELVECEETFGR

T1 sequence (Q08881 whole entry, looked up): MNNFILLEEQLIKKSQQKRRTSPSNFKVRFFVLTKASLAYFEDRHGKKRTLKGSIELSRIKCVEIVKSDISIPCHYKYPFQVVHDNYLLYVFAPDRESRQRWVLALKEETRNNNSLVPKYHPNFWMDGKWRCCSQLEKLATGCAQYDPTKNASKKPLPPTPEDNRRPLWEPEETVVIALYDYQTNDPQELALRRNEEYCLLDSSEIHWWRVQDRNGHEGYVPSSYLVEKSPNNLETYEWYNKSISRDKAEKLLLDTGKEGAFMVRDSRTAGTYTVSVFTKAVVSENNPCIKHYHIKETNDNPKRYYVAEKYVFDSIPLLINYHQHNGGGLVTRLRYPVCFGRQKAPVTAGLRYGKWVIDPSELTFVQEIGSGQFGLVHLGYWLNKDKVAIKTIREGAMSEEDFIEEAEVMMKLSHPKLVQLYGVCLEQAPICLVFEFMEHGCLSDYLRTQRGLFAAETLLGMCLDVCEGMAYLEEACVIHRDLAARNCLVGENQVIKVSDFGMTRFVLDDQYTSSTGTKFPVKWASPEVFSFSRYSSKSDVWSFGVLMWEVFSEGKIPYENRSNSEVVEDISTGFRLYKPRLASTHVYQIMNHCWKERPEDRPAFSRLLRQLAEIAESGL
T1 sequence (Q96SW2 whole entry, looked up): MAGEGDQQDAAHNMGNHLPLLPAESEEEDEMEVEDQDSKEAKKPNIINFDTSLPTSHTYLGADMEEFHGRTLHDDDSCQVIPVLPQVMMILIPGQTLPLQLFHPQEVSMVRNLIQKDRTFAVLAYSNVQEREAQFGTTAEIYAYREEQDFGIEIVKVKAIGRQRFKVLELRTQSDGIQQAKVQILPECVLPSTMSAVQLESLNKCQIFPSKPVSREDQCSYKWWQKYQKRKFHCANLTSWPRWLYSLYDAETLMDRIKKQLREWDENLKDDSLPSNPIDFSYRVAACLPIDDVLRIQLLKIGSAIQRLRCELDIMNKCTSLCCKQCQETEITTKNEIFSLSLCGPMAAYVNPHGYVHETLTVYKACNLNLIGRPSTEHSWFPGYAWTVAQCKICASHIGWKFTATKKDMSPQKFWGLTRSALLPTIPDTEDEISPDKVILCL
Chain of Tyrosine-protein kinase Lck (Homo sapiens) (P06239 2-509 limits assumed): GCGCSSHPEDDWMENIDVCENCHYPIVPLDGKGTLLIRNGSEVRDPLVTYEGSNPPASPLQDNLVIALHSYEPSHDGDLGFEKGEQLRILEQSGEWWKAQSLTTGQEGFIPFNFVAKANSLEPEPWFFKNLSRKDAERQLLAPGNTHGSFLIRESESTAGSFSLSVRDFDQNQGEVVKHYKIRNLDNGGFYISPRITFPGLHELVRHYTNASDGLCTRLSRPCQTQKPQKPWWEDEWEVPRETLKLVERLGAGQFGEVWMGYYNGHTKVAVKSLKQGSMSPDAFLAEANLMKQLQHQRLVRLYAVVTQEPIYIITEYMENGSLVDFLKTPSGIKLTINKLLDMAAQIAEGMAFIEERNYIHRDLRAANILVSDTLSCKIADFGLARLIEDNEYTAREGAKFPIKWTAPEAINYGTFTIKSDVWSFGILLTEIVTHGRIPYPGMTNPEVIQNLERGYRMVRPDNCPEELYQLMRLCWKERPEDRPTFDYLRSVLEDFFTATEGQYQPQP

Consider `CN(CCCCCC(=O)Nc1ccc2c(c1)C(=O)N(C1CCC(=O)NC1=O)C2=O)CC[C@@H](c1ccccc1)n1cc(NC(=O)c2n[nH]c3c2CCC(C)(C)C3)cn1.O=C(O)C(F)(F)F` (some centres not stated), for which the maximal response (Emax) in series [1] is 99%. The Activity in series [2] turned out to be 12%. Besides, the result in series [3], in [5], in [6], in [7] and in [12] was inactive. In [4], the outcome was Active. Besides, the AUC(0-t) at 24 h in series [8] turned out to be 1080 ng·h/mL. In series [9], the AUC(0-inf) was 1080 ng·h/mL. This molecule also displayed a CL/F in [10] of 109 mL/min/kg. For the same molecule, the peak concentration (Cmax) in series [11] was 1240 ng/mL.

What is called Emax is the size of the effect at its maximum, as opposed to the concentration needed. For orientation: AUC(0-t) means exposure summed from dosing to a finite time, without extrapolation to infinity. High values mean more exposure, low ones less exposure. The AUC(0-inf) is the area under the concentration-time curve extrapolated to infinity. Lower therefore signals low exposure. Broadly, the CL/F is the apparent clearance, not corrected for the fraction that reaches the circulation. As a reminder, the Cmax is the maximum level reached in the sampled fluid or tissue.
